Patent US20120294803A1, “CXCR4 ANTAGONISTS FOR IMAGING OF CANCER AND INFLAMMATORY DISORDERS” (EMORY UNIVERSITY, priority 2010, published 2012)
pKd: −log10 of the molar value.

Assays:
CXCR4 = CXCR4 (Homo sapiens, UniProt P61073); test: Competition binding assay, metastatic 686LN cells with [18F]M508F and increasing nonradioactive [19F]M508F
Procedure: To determine whether [^18F]M508F specifically and quantitatively would bind to CXCR4 on the cell surface, we tested this using the metastatic 686LN subclones that are CXCR4-positive in vitro. […] Similarly, a competition assay was used to determine the binding affinity of [^18F]M508F to CXCR4. Metastatic 686LN cells, incubated with a constant amount of [^18F]-M508F and increasing concentrations of nonradioactive [^19F]-M508F for 1 h at ambient temperature, were used in the competition binding assay.

[1] = test system: CXCR4-positive lung metastases; test: MicroPET/CT imaging in lung metastasis of SCCHN animal model; assay type: in vivo, mouse; conditions: 60 mins post-injection
Procedure: MicroPET/CT scan images of the lungs were performed to determine whether [^18F]M508F can be used to image CXCR4-positive lung metastases in vivo. These images were obtained 60 minutes post-injection of [^18F]M508F.

CXCR4-positive paw edema = test: MicroPET/CT imaging in edema animal model; assay type: in vivo, mice; conditions: 30 mins post-injection
Procedure: In vivo biodistribution studies were performed to determine whether [^18F]M508F can be used to image CXCR4-positive inflammation in vivo.

[2] = test system: CXCR4-positive immune cells; test: MicroPET/CT imaging of lung inflammation induced by strong-dose radiation; assay type: in vivo, mouse; conditions: 20 Gy irradiation, 60 mins post-injection
Procedure: MicroPET/CT scan images of the lungs were performed to determine whether [^18F]M508F can be used to image lung inflammation induced by the strong-dose radiation therapy in vivo. These images were obtained 60 minutes post-injection of [^18F]M508F.
These images were obtained 60 minutes post-injection of [^18F]M508F.

[3] = test system: CXCR4-positive orthothopic SCCHN tumors; test: MicroPET imaging in orthotopic SCCHN animal model; assay type: in vivo, mouse; conditions: 30 mins post-injection
Procedure: In vivo biodistribution and tumor uptake studies were performed to determine whether [^18F]M508F can be used to image CXCR4-positive tumors in vivo.

[4] = Tissue biodistribution by tissue harvesting and gamma counter in normal mice; assay type: in vivo, C57Black mice; conditions: 15, 30, 60, 120 min post-injection
Procedure: To determine the tissue biodistribution of [^18F]M508F using a gamma counter in regular C57Black mice, we harvested animal organs, including blood, at 15 min, 30 min, 60 min, and 120 min post-injection and measured the uptake of radioactivity in various organs [radioactivity (% injected dose)/g] with n=5 per group.
Results are shown in FIG. 2 as average vales +/−SE.

Chain of CXCR4 (P61073 whole entry, species assumed): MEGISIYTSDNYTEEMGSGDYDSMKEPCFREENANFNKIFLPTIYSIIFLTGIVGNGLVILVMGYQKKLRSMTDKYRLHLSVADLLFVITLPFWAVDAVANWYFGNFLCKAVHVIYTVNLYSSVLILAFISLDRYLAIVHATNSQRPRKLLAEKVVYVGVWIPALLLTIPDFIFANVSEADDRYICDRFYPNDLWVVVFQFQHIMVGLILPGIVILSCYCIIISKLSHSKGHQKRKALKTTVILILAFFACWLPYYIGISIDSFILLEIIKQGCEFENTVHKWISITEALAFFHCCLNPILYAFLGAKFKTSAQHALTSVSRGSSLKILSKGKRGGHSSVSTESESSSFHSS

In the case of `Fc1cnc([18F])nc1NCc1ccc(CNc2ccnc(NCCN3CCOCC3)n2)cc1` [[^18F]M508F, N4-(4((2-^18-fluoro,5-fluoropyrimidin-4-ylamino)methyl)benzyl)-N2-(2-morpholinoethyl)pyrimidine-2,4-diamine], the “binding affinity better than 64Cu-AMD3100” value (CXCR4; 1.85 μM compared with […]) was “over 50 times”, the pKd (CXCR4; metastatic 686LN cells, 1 h at ambient temperature, competition with nonradioactive [19F]-M508F, read-out: binding affinity for CXCR4) was 5.73 and the “uptake of tracer by metastatic SCCHN tumors in lung (PET/CT)” value [1] was “significant uptake”. The “uptake of tracer in paw edema (PET)” value (CXCR4-positive paw edema) was “significant uptake”, the “uptake of tracer by CXCR4-positive immune cells in lung inflammation (PET/CT)” value [2] was “significant uptake” and the “tumor uptake of tracer (PET)” value [3] was “significant uptake”. For the same compound, the “crossing of the blood-brain-barrier” value ([3]; PET sagittal image) was “does not cross the blood-brain-barrier”, the “accumulation in the liver” value [4] was “anomalous specific accumulation in the liver” and the “blood and muscle clearance” value [4] was “fast blood and muscle clearance”. The clearance pathway [4] was “renal clearance pathway”.
